Data from patent publication US20250295620A1, “PHARMACEUTICAL COMPOSITION FOR TREATMENT OF HEART FAILURE WITH DIASTOLIC DYSFUNCTION” (NATIONAL UNIVERSITY CORPORATION TOKAI NATIONAL HIGHER …, priority 2022, published 2025).

How the values were obtained:
HFpEF patients = details: clinical studies, Anker S et al., N Engl J Med 2021; cited from earlier work
HFpEF model mice [1] = assay: Pressure-volume loop analysis with conductance catheter in HFpEF model mice, Example 1; assay type: in vivo; details: Example 1, FIG. 4; tamibarotene 3 mg/kg, peretinoin 0.3 mg/body, oral gavage once a day, five weeks
Method: (§1) HFpEF model mice are generated by the method reported by Schiattarella et al. (Nature. 568 (7752): 351-356. 2019). Specifically, male mice at an age of 8 to 10 weeks are given High Fat Diet (Rodent Diet with 60% kcal % fat, D12492, Research Diets Inc.) and drinking water containing a dissolved nitric oxide synthase inhibitor (No-nitro-L-arginine methyl ester hydrochloride (L-NAME), N5751, Sigma) (at a concentration of 0.5 g/L), and kept for five weeks. Various measurements are performed to confirm the establishment of an HFpEF model.
(§2) The following drugs are administered to mouse groups while mice are continued to be given the high-fat diet and the drinking water containing the dissolved nitric oxide synthase inhibitor. AM80 (Cat. No. 3507, TOCRIS) is orally administered to tamibarotene administration group via oral gavage at a single dose of 3 mg/kg once a day. Peretinoin (Cat. No. HY-100008, MedChemExpress) is orally administered to peretinoin administration group via oral gavage at a single dose of 0.3 mg/body once a day. DMSO as a vehicle is orally administered to control group via oral gavage once a day. Administration is continued for five weeks, and various measurements are performed five weeks after the initial drug administration. […]

HFpEF model mice [2] = assay: Pressure-volume loop analysis with conductance catheter in HFpEF model mice, Example 2; assay type: in vivo; details: Example 2, FIG. 8; tamibarotene 3 mg/kg, peretinoin 10 mg/kg, oral gavage once a day, five weeks
Method: as §1
as §2, with “10 mg/kg” for “0.3 mg/body”

HFpEF model mice [3] = assay: Heart weight/tibia length measurement in HFpEF model mice, Example 2; assay type: in vivo; details: Example 2, FIG. 5; tamibarotene 3 mg/kg, peretinoin 10 mg/kg, oral gavage once a day, five weeks; compared among groups incl. DMSO control
Method: as §1
(§3) The following drugs are administered to mouse groups while mice are continued to be given the high-fat diet and the drinking water containing the dissolved nitric oxide synthase inhibitor. AM80 (Cat. No. 3507, TOCRIS) is orally administered to tamibarotene administration group via oral gavage at a single dose of 3 mg/kg once a day. Peretinoin (Cat. No. HY-100008, MedChemExpress) is orally administered to peretinoin administration group via oral gavage at a single dose of 10 mg/kg once a day. DMSO as a vehicle is orally administered to control group via oral gavage once a day. Administration is continued for five weeks, and various measurements are performed five weeks after the initial drug administration.
Mice are euthanized after the catheterization, and the heart is harvested for weight measurement. […]

HFpEF model mice [4] = assay: Transthoracic echocardiography in HFpEF model mice, Example 2; assay type: in vivo; details: tamibarotene 3 mg/kg, peretinoin 10 mg/kg, oral gavage once a day, five weeks; for left ventricular ejection fraction before and after drug administration: Example 2, FIG. 6; for E/e′ ratio after completion of drug administration compared with before start: Example 2, FIG. 7
Method: as §1, §3
(§4) Transthoracic echocardiography is performed on mice under inhalational anesthesia with isoflurane. Transmitral flow velocity pattern (TMF) is measured by pulsed Doppler echocardiography using vevo 3100 (FUJIFILM VisualSonics) equipped with a 30 MHz probe for small animals (MX-400) to determine the early diastolic inflow velocity pattern (E-wave). Early diastolic mitral annular velocity (e′) is measured by tissue Doppler echocardiography. The transmitral E velocity is divided by the e′ velocity to calculate an E/e′ ratio. LV end-systolic diameter and LV end-diastolic diameter are measured by M-mode echocardiography to calculated an LV ejection fraction (EF %).

HFpEF model mice [5] = assay: Diastolic function of HFpEF model mice, overall conclusion from Examples 1 and 2; assay type: in vivo; details: summary of Examples 1 and 2
Method: as §1
The following drugs are administered to mouse groups while mice are continued to be given the high-fat diet and the drinking water containing the dissolved nitric oxide synthase inhibitor. […]
as §4, with “The transmitral E velocity is divided by the e′ velocity to calculate an E/e′ ratio.” left out, “%). […]” for “%).”

HFpEF model mice [6] = assay: Transthoracic echocardiography in HFpEF model mice, Example 1; assay type: in vivo; details: tamibarotene 3 mg/kg, peretinoin 0.3 mg/body, oral gavage once a day, five weeks; for left ventricular ejection fraction before and after drug administration: Example 1, FIG. 2; for E/e′ ratio after completion of drug administration compared with before start: Example 1, FIG. 3
Method: as §1
The following drugs are administered to mouse groups while mice are continued to be given the high-fat diet and the drinking water containing the dissolved nitric oxide synthase inhibitor. AM80 (Cat. No. 3507, TOCRIS) is orally administered to tamibarotene administration group via oral gavage at a single dose of 3 mg/kg once a day. Peretinoin (Cat. No. HY-100008, MedChemExpress) is orally administered to peretinoin administration group via oral gavage at a single dose of 0.3 mg/body once a day. DMSO as a vehicle is orally administered to control group via oral gavage once a day. Administration is continued for five weeks, and various measurements are performed five weeks after the initial drug administration.
as §4

HFpEF model mice [7] = assay: Masson's trichrome staining of heart tissue of HFpEF model mice, Example 2; assay type: in vivo; details: Example 2, FIG. 9; tamibarotene 3 mg/kg, peretinoin 10 mg/kg, oral gavage once a day, five weeks; 400-fold
Method: as §1
as §3, with “Administration is continued for five weeks, and various measurements are performed five weeks after the initial drug administration.” left out
Tissue specimens are prepared from the harvested heart, and stained with Masson's trichrome staining. The tissue fibrosis is photographed, and the images are analyzed using Image J for assessment.

## OC[C@H]1O[C@@H](c2ccc(Cl)c(Cc3ccc(O[C@H]4CCOC4)cc3)c2)[C@H](O)[C@@H](O)[C@@H]1O [Empagliflozin]
HFpEF patients
  efficacy for HFpEF patients: effective

## CC(C)=CCC/C(C)=C/CC/C(C)=C/C=C/C(C)=C/C(=O)O [peretinoin]
HFpEF model mice [1]
  stiffness constant β compared with control group: reduced
HFpEF model mice [2]
  stiffness constant β compared with control group: significantly reduced
HFpEF model mice [3]
  heart weight/tibia length ratio after completion of drug administration: no significant difference
HFpEF model mice [4]
  left ventricular ejection fraction before and after drug administration: no difference
  E/e′ ratio after completion of drug administration compared with before start: significantly reduced
HFpEF model mice [5]
  effect on the diastolic function of the HFpEF model mice: improving effect
HFpEF model mice [6]
  left ventricular ejection fraction before and after drug administration: no difference
  E/e′ ratio after completion of drug administration compared with before start: significantly reduced
HFpEF model mice [7]
  tissue fibrosis (fibrosis area, high-power field) compared with control group: significantly reduced

## CC1(C)CCC(C)(C)c2cc(NC(=O)c3ccc(C(=O)O)cc3)ccc21 [tamibarotene]
HFpEF model mice [1]
  stiffness constant β compared with control group: reduced
HFpEF model mice [2]
  stiffness constant β compared with control group: significantly reduced
HFpEF model mice [3]
  heart weight/tibia length ratio after completion of drug administration: no significant difference
HFpEF model mice [4]
  left ventricular ejection fraction before and after drug administration: no difference
  E/e′ ratio after completion of drug administration compared with before start: significantly reduced
HFpEF model mice [5]
  effect on the diastolic function of the HFpEF model mice: improving effect
HFpEF model mice [6]
  left ventricular ejection fraction before and after drug administration: no difference
  E/e′ ratio after completion of drug administration compared with before start: significantly reduced
HFpEF model mice [7]
  tissue fibrosis (fibrosis area, high-power field) compared with control group: significantly reduced
